How the values were obtained:
Assay type in all cases: in vivo
[1] = tested on: Corn Earworm (Helicoverpa zea); assay: Bioassays on CEW, 128-well diet tray assay; settings: percent mortality, second instar larvae, 50 μg/cm^2 on artificial diet, five to seven days, 25° C.; Table 3
Experimental: (§1) Certain molecules disclosed in this document were tested against BAW and CEW and CL using procedures described in the following examples. In the reporting of the results, the “BAW & CEW & CL Rating Table” was used (See Table Section).
Bioassays on CEW (Helicoverpa zea)
Bioassays on CEW were conducted using a 128-well diet tray assay. one to five second instar CEW larvae were placed in each well (3 mL) of the diet tray that had been previously filled with 1 mL of artificial diet to which 50 μg/cm^2 of the test compound (dissolved in 50 μL of 90:10 acetone-water mixture) had been applied (to each of eight wells) and then allowed to dry. Trays were covered with a clear self-adhesive cover, and held at 25° C., 14:10 light-dark for five to seven days. Percent mortality was recorded for the larvae in each well; activity in the eight wells was then averaged. The results are indicated in the table entitled “Table 3: Assay Results” (See Table Section).

[2] = tested on: Cabbage Looper (Trichoplusia ni); assay: Bioassays on CL, 128-well diet tray assay; settings: percent mortality, second instar larvae, 50 μg/cm^2 on artificial diet, five to seven days, 25° C.; Table 3A
Experimental: as §1
Bioassays on CL (Trichoplusia ni)
Bioassays on CL were conducted using a 128-well diet tray assay. One to five second instar CL larvae were placed in each well (3 mL) of the diet tray that had been previously filled with 1 mL of artificial diet to which 50 μg/cm^2 of the test compound (dissolved in 50 μL of 90:10 acetone-water mixture) had been applied (to each of eight wells) and then allowed to dry. Trays were covered with a clear self-adhesive cover, and held at 25° C., 14:10 light-dark for five to seven days. Percent mortality was recorded for the larvae in each well; activity in the eight wells was then averaged. The results are indicated in the table entitled “Table 3A: Assay Results” (See Table Section).

[3] = tested on: Beet Armyworm (Spodoptera exigua); assay: Bioassays on BAW, 128-well diet tray assay; settings: percent mortality, second instar larvae, 50 μg/cm^2 on artificial diet, five to seven days, 25° C.; Table 3
In short: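 Second-instar larvae (one to five per well) were placed on artificial diet surface-treated with 50 μg/cm^2 compound in acetone-water and held at 25 °C, 14:10 light-dark, for five to seven days. Percent mortality was averaged over eight wells.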

| SMILES | CL Rating [2] | BAW Rating [3] | further results |
| --- | --- | --- | --- |
| O=C(NCc1ccc(/C=C/C(c2cc(Cl)c(Cl)c(Cl)c2)C(F)(F)F)cc1Cl)Oc1ccccc1Cl (centres unmarked) [CC40] |  |  | CEW Rating [1]: A (50-100) |
| CCNC(=O)N(C)NC(=O)c1ccc(/C=C/C(c2cc(Cl)c(Cl)c(Cl)c2)C(F)(F)F)cc1Br (centres unmarked) [Compound F1, (E)-2-(2-Bromo-4-(4,4,4-trifluoro-3-(3,4,5-trichlorophenyl)but-1-en-1-yl)benzoyl)-N-ethyl-1-methylhydrazinecarboxamide] | A (50-100) |  |  |
| O=C(NCC(F)(F)F)NNC(=O)c1ccc(/C=C/C(c2cc(Cl)c(Cl)c(Cl)c2)C(F)(F)F)cc1Br (centres unmarked) [Compound F7, (E)-2-(2-Bromo-4-(4,4,4-trifluoro-3-(3,4,5-trichlorophenyl)but-1-en-1-yl)benzoyl)-N-(2,2,2-trifluoroethyl)hydrazinecarboxamide] | A (50-100) |  |  |
| C/C(=C\C(c1cc(Cl)cc(Cl)c1)C(F)(F)F)c1ccc(-n2cncn2)cc1 (centres unmarked) [DC68, (E)-1-(4-(4-(3,5-Dichlorophenyl)-5,5,5-trifluoropent-2-en-2-yl)phenyl)-1H-1,2,4-triazole] |  | A (50-100) |  |
| COC(/C=C/c1ccc(-n2cncn2)cc1)(c1cc(Cl)cc(Cl)c1)C(F)(F)F (centres unmarked) [DC70, (E)-1-(4-(3-(3,5-Dichlorophenyl)-4,4,4-trifluoro-3-methoxybut-1-en-1-yl)phenyl)-1H-1,2,4-triazole] |  | A (50-100) |  |

From patent publication US9635859B2, “Pesticidal compositions and processes related thereto” (Dow AgroSciences LLC, priority 2012, dated 2017)
